Laboratory results from patent EP3720857B1, “2-OXO-5H-CHROMENO[4,3-B]PYRIDINES FOR USE IN THE TREATMENT OF HEPATITIS B” (Galapagos NV, priority 2017, dated 2019).

Assays:
[1] = test system: hepatitis virus B (HBV) infection; experiment: iCell hepatocytes assay, delayed assay (compounds added three days after HBV infection); type: cell-based; conditions: for EC50: Hepatitis B virus, Hepatocyte, HBs ELISA
Protocol: The principle of the iCell hepatocyte 2.0 96 well assay is to evaluate the inhibitory effect of a test compound on hepatitis virus B (HBV) infection. In this assays the HBV core antigen (HBcAg) and/or extracellular antigen (HBeAg) and/or surface antigen (HBsAg) are used as a marker for HBV infection. Nuclei count may be used as an indication for compound toxicity.
In the standard assay set-up HBV infection and compound addition are performed on the same day, in the delayed assay the compounds are added three days after HBV infection. iCell hepatocytes 2.0 are human hepatocytes derived from induced pluripotent stem cells (iPSc) purchased from Cellular Dynamics international (CDI, R1027).
At day 0, iCell hepatocytes 2.0 (CDI, R1027) are thawed and seeded in collagen I coated 96well plates at 112 000c/well (100µL) in plating medium (RPMI supplemented with B27 supplement, 20 ng/mL recombinant human oncostatin M (OSM), 25µg/mL gentamicin, 0.1µM Dexamethasone and iCell medium supplement provided by CDI). Plates are incubated at 37°C, 5% CO2 and daily refreshed with plating medium for the following four days.
On day 5 and 6, plates are refreshed with 100µL maintenance medium (RPMI supplemented with B27 supplement, 25µg/mL gentamicin, 0.1µM Dexamethasone, and iCell medium supplement provided by CDI) and incubated at 37°C, 5% CO2 until the following day.
On day 7 (day of infection), the maintenance medium is removed from the assay plates and cells are infected with 50 µL of HBV mix (HBV virus, 4% PEG, 0% or 2% DMSO in maintenance medium). The assay plates were incubated overnight at 37°C, 5% CO2.
At day 1 post infection (day8), 50µL of HBV mix is removed from the assay plates and refreshed with 100 µL of maintenance medium. The assay plates are incubated at 37°C, 5% CO2 for three days.
At day 4 post infection (day 11) and day 7 post infection (day14), the supernatant is removed and 100 µL of compound series diluted 1/500 in maintenance medium is added to the assay plates (8 point serial dilution using 1/3 dilution steps in 100% DMSO or 8 point serial dilution using ¼ dilution steps, normalized for 0.2% DMSO. The assay plates were incubated at 37°C, 5% CO2 for three days.
At day 10 post infection (day 17), 100µL of supernatant is harvested and frozen to -20°C. The cells are fixed with 50 µL of 3.7% formaldehyde and incubated for 30 min at room temperature. After fixation, cells are washed four times with phosphate buffer saline (PBS) with the plate washer (Select 405, microplate washer, Biotek) and subjected to HBc staining. harvested supernatant is used for HBe and/or HBs ELISA.
The assay plates are blocked with blocking buffer (2% FBS, 3% BSA, 0.2% TritonX100 in PBS) for 1 h at room temperature.
After blocking, the assay plates are tapped manually and incubated with 50 µL diluted primary antibody (1/700 Rabbit-anti-HBc Ag, Dako, B0586 or 1/350 Rabbit-anti-HBc Ag, Invitrogen, PA516368) in blocking buffer and incubated for 90 min at room temperature.
After 4 washes of PBST (1XPBS + 0.05% Tween) with the plate washer, the assay plates are incubated with 100 µL of secondary antibody (Donkey-anti-rabbit Alexa 488, Lifetechnologies, A21206) 1/500 diluted in blocking buffer and incubated for 60 min at room temperature in the dark, then washed 4 times with PBST on the plate washer and incubated with 100µL of DAPI (Sigma D9542, stock 5mg/mL) 1/10000 diluted in PBS for 15-30 min at room temperature in the dark.
Finally, the assay plates are read out on a InCell Analyzer 2200 (GE Healthcare). […]
After blocking, 30 µL of sample and HBe Ag standard (recombinant hepatitis B virus E antigen protein, 4mg/mL, Abcam, ab91273) are added to the plate. The HBe Ag standard is 1/3 diluted in blocking buffer starting from 1.25µg/mL. A vehicle control is also included. The plate is incubated for 30 min at room temperature.
After sample incubation, the plates are washed 4 times with PBST on a platewasher followed by 2 washed of PBS. […]

[2] = test system: hepatitis virus B (HBV) infection; experiment: HepG2 NTCP assay (HBcAg staining as marker of HBV infection); type: cell-based; conditions: HepG2-NTCP cells infected with HBV, HBV core antigen (HBcAg) as marker of infection
Text: The principle of the hepG2-NTCP assay is to measure the effect of a test compound on the inhibition of the hepatitis virus B (HBV) infection compared to a reference compound. To be able to infect the hepatocellular carcinoma cells (HepG2) with HBV, HepG2 cells were stably transfected with the Na+-taurocholate co-transporting polypeptide (NTCP) receptor, also referred to as Sodium/bile acid cotransporter (SLC10A1), which is necessary for HBV infection. In this assay the HBV core antigen (HBcAg) is used as a marker of HBV infection. Nuclei count is used as an indication for compound toxicity.
On day one, HepG2-NTCP cells ((Ni et al., 2014)) are seeded at 5000 cells in 50 µL per well in assay medium (DMEM high glucose supplemented with 10% non-heat inactivated (non HI) fetal bovine serum (FBS), 1% P/S, 1% L-glutamine and 1% MEM NEAA) in 384 well plate and incubated at 37°C, 5% CO2 overnight.
Compounds are prepared as 10 point serial dilutions using 1/3 dilution steps in 100% DMSO starting from 10 mM highest concentration, unless otherwise requested for very potent compounds, which started from 5mM or 1mM stock. Compounds are further diluted 1/500 in assay medium.
A negative control (vehicle: 24 wells with 0.2% DMSO) and positive control (24 wells with 100nM Myrcludex B (Cas no.: 406461-66-3), 0.2% DMSO and in 10 point DR) are included in the experiments.
On the second day, 40µl medium is removed from the cells with the plate washer (Select 405 microplate washer, Biotek). 15 µL of diluted compound series is transferred to the assay plate and cells are infected with 15 µL of HBV mix (HBV virus, 4%PEG, 1%DMSO in assay medium). The infection is performed in assay medium containing final concentration of 1% DMSO. The assay plate is incubated at 37°C, 5% CO2 overnight.
The next day, 30µl compound and HBV mix are removed from the assay plate with the plate washer and 30 µL of compound series diluted 1/500 in assay medium containing final concentration of 2.5% DMSO is added to the cell assay plate. The assay plate is incubated at 37°C, 5% CO2 for 5 days.
After 5 days of incubation, supernatant is removed from the cells with the plate washer. Cells are fixed with 50 µL of 3.7% formaldehyde added with the Well mate (Matrix technologies) and incubated for 30 min at room temperature. After fixation, cells are washed four times with phosphate buffer saline (1xPBS, 137mM NaCl, 10mM na2HPO4, 2.7mM KCl, 1.8mM KH2PO4 at pH7.4). The cells are finally subjected to HBc staining.
First, the assay plate is blocked with blocking buffer (2%FBS, 3% BSA, 0.2% TritonX100 in PBS) for 1 h at room temperature (optional to block overnight at 4°C).
After 4 washes of PBST (1XPBS + 0.05% Tween) with the plate washer, the assay plate is incubated with 30 µL diluted primary antibody (1/700 Rabbit anti-HBV core antigen, Dako, B0586 or 1/350 Rabbit anti HBV core antigen, Invitrogen, PA516368) in blocking buffer and incubated for 90 min at room temperature.
After 4 washes of PBST with the plate washer, the assay plate is incubated with 50 µL of secondary antibody (Donkey-anti-rabbit Alexa 488 antibody, Lifetechnologies A21206) 1/500 diluted in blocking buffer and incubated for 60 min at room temperature and in the dark.
The assay plate is washed 4 times with PBST on the plate washer and incubated with 50µL of DAPI (Sigma D9542, stock 5mg/mL) 1/10000 diluted in PBS for 15-30 min at room temperature and in the dark. The assay plate is now ready for read out on the InCell Analyzer 2200 (GE Healthcare).
Raw data are generated following read-out performed on InCell 2200 and are imported into the galapagos LIMS for automated calculation of percentage inhibition (PIN) and toxicity by nuclei count, using the control wells mentioned above, and creation of Dose Response curves. Table V. Hepg2 NTCP assay activity of illustrative compounds of the invention

Compound | IC50 [2] | Delayed assay HBs ELISA % inhibition [1] | EC50 [1]
COCCCOc1cc2c(cc1Cl)-c1c(cc(C(=O)O)c(=O)n1C1CCC1)C(C(C)C)O2 (stereo not shown) [Compound 17, 9-chloro-1-cyclobutyl-5-isopropyl-8-(3-methoxypropoxy) -2-oxo-5H-chromeno[4,3-b]pyridine-3-carboxylic acid] | 0.001 to 1 nM | +++ (75-100%) | 0.001 to 20 nM
CC(C)C1Oc2cc(OCC3COCCO3)c(Cl)cc2-c2c1cc(C(=O)O)c(=O)n2C1CC1 (stereo not shown) [Compound 7, 9-chloro-1-cyclopropyl-8-(1,4-dioxan-2-ylmethoxy)-5-isopropyl-2-oxo-5H-chromeno[4,3-b]pyridine-3-carboxylic acid] | 0.001 to 1 nM |  | 
COc1cc2c(cc1OC)-c1c(cc(C(=O)O)c(=O)n1C1CC1)C(CSC)O2 (stereo not shown) [Compound 74, 1-cyclopropyl-8,9-dimethoxy-5-(methylsulfanylmethyl)-2-oxo-5H-chromeno[4,3-b]pyridine-3-carboxylic acid] | > 100 nM |  | 
COc1cc2c(cc1Cl)-c1c(cc(C(=O)O)c(=O)n1C1CC1)[C@H](C1(C)COC1)O2 [Compound 67, (5R)-9-chloro-1-cyclopropyl-8-methoxy-5-(3-methyloxetan-3-yl)-2-oxo-5H-chromeno[4,3-b]pyridine-3-carboxylic acid] | 0.001 to 1 nM |  | 
CCOc1cc2c(cc1OC)-c1c(cc(C(=O)O)c(=O)n1C1CC1)C(C(C)C)O2 (stereo not shown) [Compound 37, 1-cyclopropyl-8-ethoxy-5-isopropyl-9-methoxy-2-oxo-5H-chromeno[4,3-b]pyridine-3-carboxylic acid] | 1 to 20 nM |  | 
CCC1Oc2cc(OC)c(OC)cc2-c2c1cc(C(=O)O)c(=O)n2C1CC1 (stereo not shown) [Compound 15, 1-cyclopropyl-5-ethyl-8,9-dimethoxy-2-oxo-5H-chromeno[4,3-b]pyridine-3-carboxylic acid] | 20 to 100 nM |  | 
COCCCOc1cc2c(cc1S(C)(=O)=O)-c1c(cc(C(=O)O)c(=O)n1C1CC1)C(C(C)C)O2 (stereo not shown) [Compound 63, 1-cyclopropyl-5-isopropyl-8-(3-methoxypropoxy) -9-methylsulfonyl-2-oxo-5H-chromeno[4,3-b]pyridine-3-carboxylic acid] | 1 to 20 nM |  | 
CC(C)C1Oc2cc(OCC3(C)COC3)c(F)cc2-c2c1cc(C(=O)O)c(=O)n2C1CC1 (stereo not shown) [Compound 65, 1-cyclopropyl-9-fluoro-5-isopropyl-8-[(3-methyloxetan-3-yl)methoxy]-2-oxo-5H-chromeno[4,3-b]pyridine-3-carboxylic acid] | 0.001 to 1 nM |  | 

Second part, led by results:

IC50 [2] | Compound | Delayed assay HBs ELISA % inhibition [1] | EC50 [1]
1 to 20 nM | COCCCOc1cc2c(cc1Cl)-c1c(cc(C(=O)O)c(=O)n1C1CC1)[C@@H](C1(C)COC1)O2 [Compound 47, (5S)-9-chloro-1-cyclopropyl-8-(3-methoxypropoxy)-5-(3-methyloxetan-3-yl)-2-oxo-5H-chromeno[4,3-b]pyridine-3-carboxylic acid] | ++ (50-75%) | 22 to 50 nM
1 to 20 nM | COCCOc1cc2c(cc1OC)-c1c(cc(C(=O)O)c(=O)n1C1CC1)C(C(C)C)O2 (stereo not shown) [Compound 31, 1-cyclopropyl-5-isopropyl-9-methoxy-8-(2-methoxyethoxy)-2-oxo-5H-chromeno[4,3-b]pyridine-3-carboxylic acid] |  | 
0.001 to 1 nM | CC1(C2Oc3cc(OC[C@H]4COCCO4)c(Cl)cc3-c3c2cc(C(=O)O)c(=O)n3C2CC2)COC1 (stereo partly drawn) [Compound 69, 9-chloro-1-cyclopropyl-8-[[(2R)-1,4-dioxan-2-yl]methoxy]-5-(3-methyloxetan-3-yl)-2-oxo-5H-chromeno[4,3-b]pyridine-3-carboxylic acid] |  | 
1 to 20 nM | COc1cc2c(cc1OCCCO)OC(C(C)C)c1cc(C(=O)O)c(=O)n(C3CC3)c1-2 (stereo not shown) [Compound 36, 1-cyclopropyl-8-(3-hydroxypropoxy) -5-isopropyl-9-methoxy-2-oxo-5H-chromeno[4,3-b]pyridine-3-carboxylic acid] |  | 
0.001 to 1 nM | CC(C)C1Oc2cc(OCC3(C)COC3)c(Cl)cc2-c2c1cc(C(=O)O)c(=O)n2C1CC1 (stereo not shown) [Compound 52, 9-chloro-1-cyclopropyl-5-isopropyl-8-[(3-methyloxetan-3-yl)methoxy]-2-oxo-5H-chromeno[4,3-b]pyridine-3-carboxylic acid] |  | 
1 to 20 nM | COCCCOc1cc2c(cc1OC)-c1c(cc(C(=O)O)c(=O)n1C1CC1)C(C(C)C)O2 (stereo not shown) [Compound 10, 1-cyclopropyl-5-isopropyl-9-methoxy-8-(3-methoxypropoxy) -2-oxo-5H-chromeno[4,3-b]pyridine-3-carboxylic acid] |  | 
0.001 to 1 nM | COCCCOc1cc2c(cc1C#N)-c1c(cc(C(=O)O)c(=O)n1C1CC1)C(C(C)C)O2 (stereo not shown) [Compound 24, 9-cyano-1-cyclopropyl-5-isopropyl-8-(3-methoxypropoxy) -2-oxo-5H-chromeno[4,3-b]pyridine-3-carboxylic acid] |  | 
